Several values for one entry are separate records, joined by “and”; a condition that tells them apart may be missing. Equal entries are not always repeated. Inconclusive results and toxic doses are left out. Cut-off read from the data, not from the text of the source: active = T/C of 150% or more; inactive = T/C below 125%.
Test system: L1210 leukemia ip in BDF1 mice, survival T/C
Assay: NCI In Vivo Anticancer Drug Screen. Data for tumor model L1210 Leukemia (intraperitoneal) in B6D2F1 (BDF1) mice
Details: endpoint: mean survival time, higher = longer survival
Procedure, shortened: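 Ratio derived from survival: compound-dosed mice over vehicle-dosed mice, all bearing a transplantable tumor.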

[1] = dose: 100.0 mg/kg/injection, schedule: Q01DX009 (ip), vehicle: saline with Tween-80
[2] = dose: 100.0 mg/kg/injection, schedule: Q04DX003 (ip), vehicle: saline with Tween-80
[3] = dose: 200.0 mg/kg/injection, schedule: Q01DX009 (ip), vehicle: saline with Tween-80
[4] = dose: 200.0 mg/kg/injection, schedule: Q04DX003 (ip), vehicle: saline with Tween-80
[5] = dose: 400.0 mg/kg/injection, schedule: Q01DX009 (ip), vehicle: saline with Tween-80
[6] = dose: 400.0 mg/kg/injection, schedule: Q04DX003 (ip), vehicle: saline with Tween-80
[7] = dose: 50.0 mg/kg/injection, schedule: Q01DX001 (ip), vehicle: saline
[8] = dose: 75.0 mg/kg/injection, schedule: Q01DX001 (ip), vehicle: saline
[9] = dose: 150.0 mg/kg/injection, schedule: Q01DX001 (ip), vehicle: saline
[10] = dose: 100.0 mg/kg/injection, schedule: Q04DX003 (ip), vehicle: Klucel (hydroxypropylcellulose) (HPC)
[11] = dose: 100.0 mg/kg/injection, schedule: Q01DX009 (ip), vehicle: Klucel (hydroxypropylcellulose) (HPC)
[12] = dose: 200.0 mg/kg/injection, schedule: Q01DX009 (ip), vehicle: Klucel (hydroxypropylcellulose) (HPC)
[13] = dose: 200.0 mg/kg/injection, schedule: Q04DX003 (ip), vehicle: Klucel (hydroxypropylcellulose) (HPC)
[14] = dose: 400.0 mg/kg/injection, schedule: Q01DX009 (ip), vehicle: Klucel (hydroxypropylcellulose) (HPC)
[15] = dose: 400.0 mg/kg/injection, schedule: Q04DX003 (ip), vehicle: Klucel (hydroxypropylcellulose) (HPC)
[16] = dose: 100.0 mg/kg/injection, schedule: Q04DX002 (ip), vehicle: Klucel (hydroxypropylcellulose) (HPC)
[17] = dose: 200.0 mg/kg/injection, schedule: Q04DX002 (ip), vehicle: Klucel (hydroxypropylcellulose) (HPC)
[18] = dose: 400.0 mg/kg/injection, schedule: Q04DX002 (ip), vehicle: Klucel (hydroxypropylcellulose) (HPC)

Measured: T/C

CC1(C)N=C(N)N=C(N)N1c1ccc(OCCCNC(=O)Nc2ccc(S(=O)(=O)F)cc2)c(Cl)c1
inactive: dose: 18.75 mg/kg/injection, schedule: Q04DX003 (ip), vehicle: saline with Tween-80 106 % of control | dose: 37.5 mg/kg/injection, schedule: Q04DX003 (ip), vehicle: saline with Tween-80 104 % of control | dose: 50.0 mg/kg/injection, schedule: Q01DX004 (ip), vehicle: saline 111 % of control | dose: 75.0 mg/kg/injection, schedule: Q04DX003 (ip), vehicle: saline with Tween-80 103 % of control | dose: 100.0 mg/kg/injection, schedule: Q01DX004 (ip), vehicle: saline 100 % of control

CCCCCCC(C)O[Si](C)c1ccccc1C (stereo not given)
inactive: [1] 98 % of control | [2] 98 % of control | [3] 100 % of control | [4] 98 % of control | [5] 111 % of control | [6] 98 % of control

c1ccc(OCCC[P+](c2ccccc2)(c2ccccc2)c2ccccc2)cc1
inactive: [7] 100 % of control

CCN(CC)CC(=O)NCC(CCN(C)C)(c1cccc2ccccc12)C(C)C (stereo not given)
inactive: dose: 100.0 mg/kg/injection, schedule: Q04DX003 (ip), vehicle: saline 102 % of control | dose: 200.0 mg/kg/injection, schedule: Q04DX003 (ip), vehicle: saline 93 % of control

CCCC[As](=O)(O)CC(C)C
inactive: dose: 6.25 mg/kg/injection, schedule: Q01DX009 (ip), vehicle: saline 93 % of control | dose: 12.5 mg/kg/injection, schedule: Q01DX009 (ip), vehicle: saline 101 % of control

CCCCCCCCCC(C)Cc1ccccc1 (stereo not given)
inactive: dose: 100.0 mg/kg/injection, schedule: Q01DX001 (ip), vehicle: saline with Tween-80 100 % of control | dose: 200.0 mg/kg/injection, schedule: Q01DX001 (ip), vehicle: saline with Tween-80 100 % of control | dose: 400.0 mg/kg/injection, schedule: Q01DX001 (ip), vehicle: saline with Tween-80 92 % of control

c1ccc([Si]2(c3ccccc3)O[Si](c3ccccc3)(c3ccccc3)O[Si](c3ccccc3)(c3ccccc3)O2)cc1
inactive: [8] 93 % of control | [9] 87 % of control

O=c1ccc2c([nH]1)CCC2
inactive: dose: 25.0 mg/kg/injection, schedule: Q01DX009 (ip), vehicle: saline 111 % of control | dose: 25.0 mg/kg/injection, schedule: Q04DX003 (ip), vehicle: saline with Tween-80 94 % of control | dose: 50.0 mg/kg/injection, schedule: Q01DX009 (ip), vehicle: saline 121 % of control | dose: 50.0 mg/kg/injection, schedule: Q04DX003 (ip), vehicle: saline with Tween-80 98 % of control | dose: 100.0 mg/kg/injection, schedule: Q01DX009 (ip), vehicle: saline 101 % of control | [10] 100 % of control | [2] 94 % of control

ClC(Cc1ccccc1)c1ccccc1 (stereo not given)
inactive: [7] 97 % of control | dose: 100.0 mg/kg/injection, schedule: Q01DX001 (ip), vehicle: saline 97 % of control | dose: 200.0 mg/kg/injection, schedule: Q01DX001 (ip), vehicle: saline 97 % of control | dose: 400.0 mg/kg/injection, schedule: Q01DX001 (ip), vehicle: saline 97 % of control

Cc1ccc(S(=O)(=O)N2CC(O)CC2C(=O)O)cc1 (stereo not given)
inactive: [1] 96 % of control | [2] 93 % of control and 100 % of control | [3] 101 % of control | [4] 95 % of control and 103 % of control | [5] 101 % of control | [6] 93 % of control and 96 % of control

O=C1OC(=O)c2c1ccc(Br)c2Br
inactive: [11] 102 % of control | [10] 101 % of control | [12] 96 % of control | [13] 98 % of control | [14] 89 % of control | [15] 93 % of control

Cc1noc(N)c1C#N
inactive: dose: 100.0 mg/kg/injection, schedule: Q04DX002 (ip), vehicle: saline with Tween-80 100 % of control | dose: 200.0 mg/kg/injection, schedule: Q04DX002 (ip), vehicle: saline with Tween-80 95 % of control | dose: 400.0 mg/kg/injection, schedule: Q04DX002 (ip), vehicle: saline with Tween-80 89 % of control

CN1CC(C(=O)NO)C=C2c3cccc4[nH]cc(c34)CC21 (stereo not given)
inactive: dose: 50.0 mg/kg/injection, schedule: Q04DX003 (ip), vehicle: alcohol 104 % of control | dose: 100.0 mg/kg/injection, schedule: Q04DX003 (ip), vehicle: alcohol 101 % of control | dose: 200.0 mg/kg/injection, schedule: Q04DX003 (ip), vehicle: alcohol 103 % of control

CSc1ccc(NC(=O)Nc2cccc(C(C)=O)c2)cc1
inactive: [11] 97 % of control | [12] 94 % of control | [14] 91 % of control

Cc1ccc(SCCN)cc1
inactive: [8] 105 % of control | [9] 96 % of control

CCC(=O)Oc1ccc(OCc2ccccc2)cc1
inactive: [11] 95 % of control | [10] 95 % of control | [12] 97 % of control | [13] 98 % of control | [14] 98 % of control | [15] 95 % of control

CCCc1nc2ccccc2c(=O)n1/N=C/c1ccc(Cl)cc1Cl
inactive: [16] 96 % of control | [17] 92 % of control | [18] 103 % of control

Cc1cc(C)c(NC(=O)c2cccc([N+](=O)[O-])c2C(=O)O)cc1C
inactive: [16] 105 % of control | [17] 96 % of control | [18] 108 % of control

COc1ccc(C(=O)N/N=C/c2ccccc2Cl)cc1
inactive: [11] 106 % of control | [12] 97 % of control | [14] 102 % of control

O=C(CBr)Nc1ccc(Cl)cc1
inactive: dose: 2.0 mg/kg/injection, schedule: Q04DX003 (ip), vehicle: Klucel (hydroxypropylcellulose) (HPC) 96 % of control | dose: 3.12 mg/kg/injection, schedule: Q01DX009 (ip), vehicle: Klucel (hydroxypropylcellulose) (HPC) 92 % of control | dose: 4.0 mg/kg/injection, schedule: Q04DX003 (ip), vehicle: Klucel (hydroxypropylcellulose) (HPC) 104 % of control | dose: 6.25 mg/kg/injection, schedule: Q01DX009 (ip), vehicle: Klucel (hydroxypropylcellulose) (HPC) 102 % of control | dose: 9.0 mg/kg/injection, schedule: Q04DX003 (ip), vehicle: Klucel (hydroxypropylcellulose) (HPC) 100 % of control | dose: 12.5 mg/kg/injection, schedule: Q01DX009 (ip), vehicle: Klucel (hydroxypropylcellulose) (HPC) 89 % of control | dose: 19.0 mg/kg/injection, schedule: Q04DX003 (ip), vehicle: Klucel (hydroxypropylcellulose) (HPC) 104 % of control and 91 % of control | dose: 25.0 mg/kg/injection, schedule: Q01DX009 (ip), vehicle: Klucel (hydroxypropylcellulose) (HPC) 89 % of control | dose: 50.0 mg/kg/injection, schedule: Q01DX001 (ip), vehicle: other 95 % of control | dose: 100.0 mg/kg/injection, schedule: Q01DX001 (ip), vehicle: other 101 % of control

CCCCN(CCCC)CN(CCCC)CCCC
inactive: dose: 25.0 mg/kg/injection, schedule: Q01DX009 (ip), vehicle: saline with Tween-80 97 % of control | dose: 50.0 mg/kg/injection, schedule: Q01DX009 (ip), vehicle: saline with Tween-80 100 % of control | [1] 100 % of control | dose: 100.0 mg/kg/injection, schedule: Q04DX002 (ip), vehicle: saline 95 % of control | dose: 200.0 mg/kg/injection, schedule: Q04DX002 (ip), vehicle: saline 95 % of control
